4 compounds from PMC3929664, “A Panel of Diverse Assays to Interrogate the Interaction between Glucokinase and Glucokinase Regulatory Protein, Two Vital Proteins in Human Disease” (PLoS ONE, 2014) can be followed below.

For this test, the target named is T1, GCK enzymatic reaction inhibited by GKRP (recombinant human GCK and GKRP) (Homo sapiens, UniProt P35557+Q14397).
T1 construct: made in house
T1 sequence (P35557 1-465): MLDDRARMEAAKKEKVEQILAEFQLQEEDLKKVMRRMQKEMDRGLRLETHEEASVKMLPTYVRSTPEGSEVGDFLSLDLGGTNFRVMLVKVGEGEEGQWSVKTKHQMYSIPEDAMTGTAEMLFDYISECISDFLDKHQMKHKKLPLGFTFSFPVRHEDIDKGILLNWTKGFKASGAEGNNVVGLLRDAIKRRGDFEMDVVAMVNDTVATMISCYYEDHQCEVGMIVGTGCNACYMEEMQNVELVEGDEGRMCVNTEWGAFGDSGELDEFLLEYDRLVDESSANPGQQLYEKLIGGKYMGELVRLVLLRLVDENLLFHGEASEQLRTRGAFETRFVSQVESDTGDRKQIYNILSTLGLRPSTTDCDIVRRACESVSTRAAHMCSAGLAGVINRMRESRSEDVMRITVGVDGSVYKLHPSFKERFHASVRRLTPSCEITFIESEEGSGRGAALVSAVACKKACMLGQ
T1 sequence (Q14397 1-625): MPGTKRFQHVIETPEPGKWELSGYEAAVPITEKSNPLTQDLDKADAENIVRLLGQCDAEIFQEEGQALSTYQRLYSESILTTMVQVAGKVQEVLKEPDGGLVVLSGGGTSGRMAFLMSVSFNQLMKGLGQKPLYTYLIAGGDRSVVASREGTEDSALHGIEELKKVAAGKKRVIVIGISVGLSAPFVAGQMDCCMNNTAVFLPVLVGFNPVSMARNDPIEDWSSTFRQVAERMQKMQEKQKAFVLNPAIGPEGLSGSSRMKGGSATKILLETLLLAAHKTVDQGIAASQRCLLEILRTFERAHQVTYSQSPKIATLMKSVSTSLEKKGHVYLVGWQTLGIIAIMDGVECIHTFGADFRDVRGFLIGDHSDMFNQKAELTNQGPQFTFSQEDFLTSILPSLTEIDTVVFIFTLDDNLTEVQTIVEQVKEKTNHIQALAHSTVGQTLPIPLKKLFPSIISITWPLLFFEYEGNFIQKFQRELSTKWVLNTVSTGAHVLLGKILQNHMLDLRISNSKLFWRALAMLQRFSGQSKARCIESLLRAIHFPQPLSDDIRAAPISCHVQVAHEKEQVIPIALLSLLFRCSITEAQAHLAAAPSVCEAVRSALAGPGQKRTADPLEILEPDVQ
Briefly: Diaphorase-coupled kinetic assay (G6PDH/diaphorase dual-coupled). The format is biochemical. The conditions noted are these: 10 nM GCK, 10 nM GKRP; for LOPAC1280 screen outcome: 1.5 µM S6P. As for the experimental part: The glucose 6-phosphate dehydrogenase (G6PDH)-coupled kinetic assay described previously was adapted for high-throughput screening by dispensing 2 µl diaphorase-coupled substrate assay buffer (pH 7.1) to give final reaction conditions of 25 mM HEPES, 25 mM KCl, 2 mM MgCl2, 1.4 mM 2-mercaptoethanol, 0.025% BSA, 0.01% Tween-20, 0.15 mM NADP^+, 5 mM glucose, 0.4 mM ATP, 4 U/ml G6PDH, and 0.1 mM resazurin (all Sigma-Aldrich, except ATP which was from Promega) into black 1536-well medium binding plates (Greiner Bio-One) using a BioRAPTR. The reaction was then initiated by addition of 2 µl of diaphorase-coupled enzyme assay buffer containing indicated concentrations of GST-GCK, FLAG-GKRP, and diaphorase (Sigma-Aldrich; final concentration 0.1 mg/ml). Reaction progress was followed by quantitation of the fluorescent product resorufin generated from resazurin with excitation at 525 nm and emission at 590 nm using a ViewLux Microplate Imager. Plates were read every minute for 30 minutes. […] For the LOPAC^1280 library screen, column 1 was all components with DMSO (maximum signal) and column 3 was no GCK with DMSO (minimum signal). These two control columns were used for data normalization. The final HTS protocol is in Table S2, and the data have been deposited in PubChem (AID 743205).
S6P, F1P, and glucose were dissolved in water; GKAs were dissolved in DMSO.
The G6PDH-coupled kinetic assay system described in [24] was utilized as a basis for developing a high-throughput screening assay to detect G6P generation. Because NADPH (excitation 340 nm, emission 450 nm) has spectral overlap with many fluorescent small molecule compounds, NADPH generation by G6PDH was coupled to NADPH-dependent reduction of resazurin to the fluorescent resorufin (excitation 525 nm, emission 590 nm) catalyzed by diaphorase ( Figure 1B ). Initial assay validation was carried out over a range (0–20 nM) of GCK and GKRP concentrations ( Figure 4A ). Additionally, seven different control mixes of NADP^+ and NADPH were tested in duplicate to generate a standard curve. The total NADP^+/NADPH concentration was 0.15 mM for all controls, with 0, 5, 10, 30, 50, 70, or 100% NADPH. This allowed estimation of the amount of NADP^+ that had been converted by the GCK reaction throughout the time-course ( Figure 4A , dashed lines). The assay is sensitive to very low levels of conversion.
The reaction rate for both 10 nM GCK alone and for 10 nM GCK with 10 nM GKRP was linear for the entire 30-minute time-course. The combination of linearity and the relatively low percent conversion of NADP^+ led us to select t = 10 minutes as providing an appropriate signal window for all future analyses. […] The IC80 value for S6P was calculated as 1.5 µM. Accordingly, this S6P concentration was utilized for all remaining diaphorase-coupled experiments.

Structures can show the parent of a compound that is named as a salt.

Take `O=C(O)C1=CC(=C(c2ccc(O)c(C(=O)O)c2)c2ccc(O)c(C(=O)O)c2)C=CC1=O` [ATA, aurintricarboxylic acid]: the LOPAC1280 screen outcome is reported as “inhibitors of the GCK-GKRP interaction”. `O=C(COP(=O)(O)O)[C@@H](O)[C@H](O)[C@H](O)CO` [F1P, fructose 1-phosphate]: the EC50 (t = 10 minutes, mean ± SD) was 4000 ± 500 nM. As for `O=P(O)(O)OC[C@@H](O)[C@@H](O)[C@H](O)[C@@H](O)CO` [S6P, sorbitol 6-phosphate], the 80% effect concentration (IC80) turned out to be 1500 nM. The IC50 (t = 10 minutes, mean ± SD) was determined as 400 ± 40 nM. Consider `Cc1ccc(C(=O)Nc2ccc(S(=O)(=O)O)c3cc(S(=O)(=O)O)cc(S(=O)(=O)O)c23)cc1NC(=O)c1cccc(NC(=O)Nc2cccc(C(=O)Nc3cc(C(=O)Nc4ccc(S(=O)(=O)O)c5cc(S(=O)(=O)O)cc(S(=O)(=O)O)c45)ccc3C)c2)c1` [suramin sodium salt], for which the LOPAC1280 screen outcome is on record as “inhibitors of the GCK-GKRP interaction”.
